Several values for one entry are separate records, joined by “and”; a condition that tells them apart may be missing. Equal entries are not always repeated. Toxic doses and inconclusive results are not listed.
Test system: P388 leukemia ip, CD2F1 mice, survival T/C
Assay: NCI In Vivo Anticancer Drug Screen. Data for tumor model P388 Leukemia (intraperitoneal) in CD2F1 (CDF1) mice
Conditions: endpoint: median survival time, higher = longer survival
In short: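 Mice carrying the transplanted tumor received test compound or vehicle. Survival was recorded in each group, and the value is the treated-group measurement divided by that of the vehicle-treated control group.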

[1] = dose: 12.5 mg/kg/injection, schedule: Q01DX005 (ip), vehicle: saline with Tween-80
[2] = dose: 25.0 mg/kg/injection, schedule: Q01DX005 (ip), vehicle: saline with Tween-80
[3] = dose: 50.0 mg/kg/injection, schedule: Q01DX005 (ip), vehicle: saline with Tween-80
[4] = dose: 100.0 mg/kg/injection, schedule: Q01DX005 (ip), vehicle: saline with Tween-80
[5] = dose: 200.0 mg/kg/injection, schedule: Q01DX005 (ip), vehicle: saline with Tween-80
[6] = dose: 50.0 mg/kg/injection, schedule: Q01DX009 (ip), vehicle: saline with Tween-80
[7] = dose: 100.0 mg/kg/injection, schedule: Q01DX009 (ip), vehicle: saline with Tween-80
[8] = dose: 200.0 mg/kg/injection, schedule: Q01DX009 (ip), vehicle: saline with Tween-80
[9] = dose: 12.5 mg/kg/injection, schedule: Q01DX009 (ip), vehicle: saline with Tween-80
[10] = dose: 25.0 mg/kg/injection, schedule: Q01DX009 (ip), vehicle: saline with Tween-80
[11] = dose: 60.0 mg/kg/injection, schedule: Q01DX005 (ip), vehicle: saline with Tween-80
[12] = dose: 120.0 mg/kg/injection, schedule: Q01DX005 (ip), vehicle: saline with Tween-80
[13] = dose: 240.0 mg/kg/injection, schedule: Q01DX005 (ip), vehicle: saline with Tween-80
[14] = dose: 100.0 mg/kg/injection, schedule: Q04DX002 (ip), vehicle: Klucel (hydroxypropylcellulose) (HPC)
[15] = dose: 200.0 mg/kg/injection, schedule: Q04DX002 (ip), vehicle: Klucel (hydroxypropylcellulose) (HPC)
[16] = dose: 400.0 mg/kg/injection, schedule: Q04DX002 (ip), vehicle: Klucel (hydroxypropylcellulose) (HPC)
[17] = dose: 50.0 mg/kg/injection, schedule: Q01DX005 (ip), vehicle: Klucel (hydroxypropylcellulose) (HPC)
[18] = dose: 100.0 mg/kg/injection, schedule: Q01DX005 (ip), vehicle: Klucel (hydroxypropylcellulose) (HPC)
[19] = dose: 200.0 mg/kg/injection, schedule: Q01DX005 (ip), vehicle: Klucel (hydroxypropylcellulose) (HPC)

Compound: CSC(=S)N/N=C(\Cc1ccccc1)c1ccccn1
- T/C [1]: 103 % of control
- T/C [2]: 106 % of control
- T/C [3]: 99 % of control and 108 % of control
- T/C [4]: 107 % of control
- T/C [5]: 107 % of control

Compound: CCSc1n[nH]c(C2CCC(=O)N2Cc2ccccc2)n1 (stereo not drawn)
- T/C [3]: 103 % of control
- T/C [4]: 104 % of control
- T/C [5]: 102 % of control

Compound: CCc1ncc(C(O)c2ccc(Cl)cc2)n1Cc1ccccc1 (stereo not drawn)
- T/C (dose: 60.0 mg/kg/injection, schedule: Q01DX005 (ip), vehicle: Klucel (hydroxypropylcellulose) (HPC)): 93 % of control
- T/C (dose: 120.0 mg/kg/injection, schedule: Q01DX005 (ip), vehicle: Klucel (hydroxypropylcellulose) (HPC)): 93 % of control
- T/C (dose: 240.0 mg/kg/injection, schedule: Q01DX005 (ip), vehicle: Klucel (hydroxypropylcellulose) (HPC)): 90 % of control

Compound: CCCC/C=C/C=C/C=C/CCCCCCCC(=O)OC(COC(=O)CCCCCCC/C=C/C1C=CC(CCCC)C(C(=O)O)C1C(=O)O)COC(=O)CCCCCCC/C=C/C1C=CC(CCCC)C(C(=O)O)C1C(=O)O (stereo not drawn)
- T/C (dose: 50.0 mg/kg/injection, schedule: Q01DX009 (ip), vehicle: Klucel (hydroxypropylcellulose) (HPC)): 101 % of control
- T/C (dose: 100.0 mg/kg/injection, schedule: Q01DX009 (ip), vehicle: Klucel (hydroxypropylcellulose) (HPC)): 111 % of control
- T/C (dose: 200.0 mg/kg/injection, schedule: Q01DX009 (ip), vehicle: Klucel (hydroxypropylcellulose) (HPC)): 108 % of control

Compound: CC(=O)Nc1cc(C)cc(C(=O)O)c1C
- T/C [6]: 97 % of control
- T/C [7]: 100 % of control
- T/C [8]: 98 % of control
- T/C (dose: 400.0 mg/kg/injection, schedule: Q01DX009 (ip), vehicle: saline with Tween-80): 98 % of control

Compound: CCC1S(=O)(=O)OCCOS1(=O)=O
- T/C (dose: 7.5 mg/kg/injection, schedule: Q01DX005 (ip), vehicle: Klucel (hydroxypropylcellulose) (HPC)): 106 % of control
- T/C (dose: 15.0 mg/kg/injection, schedule: Q01DX005 (ip), vehicle: Klucel (hydroxypropylcellulose) (HPC)): 106 % of control and 107 % of control and 116 % of control
- T/C (dose: 30.0 mg/kg/injection, schedule: Q01DX005 (ip), vehicle: Klucel (hydroxypropylcellulose) (HPC)): 109 % of control and 112 % of control and 120 % of control

Compound: CC(C)CC(NC(=O)OC(C)(C)C)C(=O)ON1C(=O)CCC1=O (stereo not drawn)
- T/C [3]: 111 % of control
- T/C [4]: 111 % of control

Compound: FC(F)(F)C(Cl)(c1ccc(Cl)cc1)c1ccc(Cl)cc1
- T/C (dose: 50.0 mg/kg/injection, schedule: Q01DX005 (sc), vehicle: olive oil, sesame oil, peanut oil): 96 % of control
- T/C (dose: 100.0 mg/kg/injection, schedule: Q01DX005 (sc), vehicle: olive oil, sesame oil, peanut oil): 96 % of control
- T/C (dose: 200.0 mg/kg/injection, schedule: Q01DX005 (sc), vehicle: olive oil, sesame oil, peanut oil): 95 % of control
- T/C (dose: 400.0 mg/kg/injection, schedule: Q01DX005 (sc), vehicle: olive oil, sesame oil, peanut oil): 100 % of control

Compound: O=C(O)c1ccccc1N=Nc1ccc(N(CCCl)CCCl)cc1
- T/C (dose: 3.13 mg/kg/injection, schedule: Q04DX003 (ip), vehicle: Klucel (hydroxypropylcellulose) (HPC)): 122 % of control
- T/C (dose: 6.25 mg/kg/injection, schedule: Q01DX009 (ip), vehicle: saline with Tween-80): 166 % of control
- T/C [9]: 152 % of control and 154 % of control
- T/C (dose: 12.5 mg/kg/injection, schedule: Q04DX003 (ip), vehicle: Klucel (hydroxypropylcellulose) (HPC)): 177 % of control
- T/C [10]: 162 % of control and 166 % of control
- T/C [6]: 99 % of control

Compound: COc1ccc(CCNC(=O)C2CC3CCCCN3C2C)cc1OC (stereo not drawn)
- T/C [11]: 99 % of control
- T/C [12]: 95 % of control
- T/C [13]: 94 % of control

Compound: NS(=O)(=O)c1cc(S(=O)(=O)Cl)ccc1Cl
- T/C [1]: 100 % of control
- T/C [2]: 100 % of control
- T/C [3]: 99 % of control and 94 % of control

Compound: O=C(/C=C/c1ccc2c(c1)OCO2)c1ccc(Cl)cc1
- T/C [6]: 86 % of control
- T/C [7]: 100 % of control
- T/C [8]: 95 % of control

Compound: Cc1cc(NCCCCCCCCNc2cc(C)nc3cc(N(C)C)ccc23)c2ccc(N(C)C)cc2n1
- T/C (dose: 12.5 mg/kg/injection, schedule: Q04DX002 (ip), vehicle: distilled water + Tween-80 + alcohol): 108 % of control
- T/C (dose: 25.0 mg/kg/injection, schedule: Q04DX002 (ip), vehicle: distilled water + Tween-80 + alcohol): 118 % of control
- T/C (dose: 100.0 mg/kg/injection, schedule: Q04DX002 (ip), vehicle: distilled water + Tween-80 + alcohol): 172 % of control

Compound: COC(=O)c1cccc2c1Oc1c(cccc1C(=O)OC)S2
- T/C [14]: 109 % of control
- T/C [15]: 115 % of control
- T/C [16]: 117 % of control

Compound: CCOc1ccccc1NC(=O)NCC(=O)NNC(=O)Nc1ccc(Cl)c([N+](=O)[O-])c1
- T/C [11]: 93 % of control
- T/C [12]: 98 % of control
- T/C [13]: 92 % of control

Compound: O=S(=O)(CCCl)c1ccccc1
- T/C (dose: 100.0 mg/kg/injection, schedule: Q04DX003 (ip), vehicle: Klucel (hydroxypropylcellulose) (HPC)): 104 % of control
- T/C (dose: 200.0 mg/kg/injection, schedule: Q04DX003 (ip), vehicle: Klucel (hydroxypropylcellulose) (HPC)): 106 % of control
- T/C (dose: 400.0 mg/kg/injection, schedule: Q04DX003 (ip), vehicle: Klucel (hydroxypropylcellulose) (HPC)): 97 % of control

Compound: Cc1ccc(NC(=O)Oc2cc(C)c(Cl)c(C)c2Cl)c([N+](=O)[O-])c1
- T/C [6]: 114 % of control
- T/C [7]: 107 % of control

Compound: CN1c2ccccc2S(=O)(=O)n2c(COc3ccc(Cl)cc3)nnc21
- T/C [1]: 100 % of control
- T/C [2]: 100 % of control
- T/C [3]: 106 % of control

Compound: O=c1c2cc3ccccc3cc2c(=O)n2n1CC(O)C(Br)C2 (stereo not drawn)
- T/C (dose: 25.0 mg/kg/injection, schedule: Q01DX009 (ip), vehicle: DMSO): 101 % of control
- T/C (dose: 50.0 mg/kg/injection, schedule: Q01DX009 (ip), vehicle: DMSO): 105 % of control
- T/C (dose: 100.0 mg/kg/injection, schedule: Q01DX009 (ip), vehicle: DMSO): 105 % of control

Compound: C=CCN(CC=C)C(=O)Nc1cccc2c(NC(=O)N(CC=C)CC=C)cccc12
- T/C [11]: 93 % of control
- T/C [12]: 97 % of control
- T/C [13]: 97 % of control

Compound: C=C1C(=O)OC2/C=C(/C)C(OC(C)=O)CC(O)/C(C)=C\C(OC(=O)/C(C)=C\C)C12 (stereo not drawn)
- T/C [9]: 100 % of control
- T/C [10]: 117 % of control
- T/C [6]: 118 % of control
- T/C [7]: 114 % of control

Compound: COC(=O)C(=O)c1c(C(=O)OC)nc2nnc(N)n2c1-c1ccc(F)cc1
- T/C (dose: 30.0 mg/kg/injection, schedule: Q01DX005 (ip), vehicle: saline with Tween-80): 93 % of control
- T/C [11]: 99 % of control
- T/C [12]: 88 % of control
- T/C [13]: 93 % of control

Compound: COc1c(COC(C)=O)ccc2c1C(=O)c1ccccc1C2=O
- T/C [14]: 108 % of control
- T/C [15]: 92 % of control
- T/C [16]: 93 % of control

Compound: COC(=O)C1CCC(=O)N1Cc1csc(-c2ccccc2)n1 (stereo not drawn)
- T/C [11]: 106 % of control
- T/C [12]: 100 % of control
- T/C [13]: 106 % of control

Compound: CCCCCC(O)CC(O)CC(=O)CCCC(=O)CC(O)CC(=O)CCCCCC(O)CC(O)CC(=O)CCCC(=O)CC(O)CC(=O)CCCC(C)=O (stereo not drawn) (tested in a mixture with another compound)
- T/C (dose: 0.62 mg/kg/injection, schedule: Q01DX005 (ip), vehicle: DMSO): 91 % of control
- T/C (dose: 1.25 mg/kg/injection, schedule: Q01DX005 (ip), vehicle: DMSO): 91 % of control
- T/C (dose: 2.5 mg/kg/injection, schedule: Q01DX005 (ip), vehicle: DMSO): 90 % of control
- T/C (dose: 5.0 mg/kg/injection, schedule: Q01DX005 (ip), vehicle: DMSO): 92 % of control
- T/C (dose: 10.0 mg/kg/injection, schedule: Q01DX005 (ip), vehicle: DMSO): 100 % of control
- T/C (dose: 20.0 mg/kg/injection, schedule: Q01DX005 (ip), vehicle: DMSO): 93 % of control

Compound: CC[As](CC)SC1CC2C3CCC4=CC(=O)C=CC4(C)C3C(=O)CC2(C)C1C(=O)CC(C)=O (stereo not drawn)
- T/C [17]: 101 % of control
- T/C [18]: 103 % of control
- T/C [19]: 94 % of control

Compound: CNC1C(=O)C(C)C(O)(C(CC(C)C(O)/C=C/C=C/CNC(=O)C(C)(C)C(O)\C(C)=C/C=C\C=C\Cc2cnc(C)o2)OC)C12C(=O)OC2COC (stereo not drawn) (tested in a mixture with another compound)
- T/C (dose: 1.0 mg/kg/injection, schedule: Q01DX005 (ip), vehicle: DMSO): 104 % of control
- T/C (dose: 2.0 mg/kg/injection, schedule: Q01DX005 (ip), vehicle: DMSO): 93 % of control

Compound: O=C1c2ccccc2C(=O)C2C3C=CC(CC3)C12 (stereo not drawn)
- T/C [17]: 105 % of control
- T/C [18]: 102 % of control
- T/C [19]: 99 % of control
